Measured values: US20040024024A1, “Aromatic sulfone hydroxamates and their use as protease inhibitors” (priority 2001, published 2004)
pKi: −log10 of the molar value. Structures can show the parent of a compound that is named as a salt.

target: T1, Human recombinant MMP-1 (Homo sapiens, UniProt P03956); assay: In vitro MMP inhibition, Ki determination (fluorogenic substrate II); assay type: biochemical; conditions: substrate (II) 4 μM, 1 hr room temperature; apparent Ki, values in parenthesis
T1 construct: made in house; host or cells: MMP-1-transfected HT-1080 cells (spent media)
T1 sequence (P03956 100-469): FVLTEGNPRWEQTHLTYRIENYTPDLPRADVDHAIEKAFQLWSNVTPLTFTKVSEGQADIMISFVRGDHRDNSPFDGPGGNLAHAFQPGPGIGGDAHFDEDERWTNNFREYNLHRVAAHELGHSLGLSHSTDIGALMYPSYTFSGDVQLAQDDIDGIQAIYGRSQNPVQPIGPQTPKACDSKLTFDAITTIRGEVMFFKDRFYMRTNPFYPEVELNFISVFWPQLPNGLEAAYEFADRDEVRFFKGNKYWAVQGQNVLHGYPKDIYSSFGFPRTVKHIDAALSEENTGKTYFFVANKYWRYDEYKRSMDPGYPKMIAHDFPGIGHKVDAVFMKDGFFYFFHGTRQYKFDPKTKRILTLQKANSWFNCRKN
Method: Several hydroxamates and salts thereof were analyzed in in vitro assays to determine their ability to inhibit the MMP cleavage of peptide substrates. Inhibition (Ki) and IC50 constants were calculated from the assayed hydroxamate-MMP interactions.
Human recombinant MMP-1, MMP-2, MMP-9, MMP-13, and MMP-14 were used in this assay. All enzymes were prepared in Assignee's laboratories following usual laboratory procedures. Protocols for the preparation and use of these enzymes are available in the scientific literature. See, e.g., Enzyme Nomenclature (Academic Press, San Diego, Calif., 1992) (and the citations therein). See also, Frije et al., J. Biol. Chem., 26(24), 16766-73 (1994).
The MMP-1 proenzyme was purified from the spent media of MMP-1-transfected HT-1080 cells provided by Dr. Harold Welgus of Washington University (St. Louis, Mo.). The protein was purified on a zinc chelating column.
All MMPs were activated using 4-aminophenylmercuric acetate (“APMA”, Sigma Chemical, St. Louis, Mo.) or trypsin. MMP-9 also was activated using human recombinant MMP-3 (purified in Assignee's laboratory following standard cloning and purification techniques).
Two fluorogenic, methoxycoumarin-containing polypeptide substrates were used in the MMP inhibition assays:
MCA-ArgProLeuGlyLeuDpaAlaArgGluArgNH2 (II)
Here, “Dpa” is 3-(2,4-dinitrophenyl)-L-2,3-diaminopropionyl group, and “MCA” is 7-methoxycoumarin-4-yl acetyl. Substrate (I) was purchased from Baychem (Redwood City, Calif.), and substrate II was prepared Assignee's laboratory. Substrate I was used in the IC50 determination assays, while substrate II was used in the Ki determination assays. In the absence of MMP inhibitory activity, either substrate is cleaved at the Gly-Leu peptide bond. This cleavage separates the highly fluorogenic peptide from the 2,4-dinitrophenyl quencher, thus resulting in increase of fluorescent intensity.
The stock solutions of the assayed hydroxamates (or salts thereof) were prepared in 1% dimethyl sulfoxide (DMSO). These stock solutions were diluted in Buffer A (100 mM Tris-HCl, 100 mM NaCl, 10 mM CaCl2, 0.05% polyoxyethylene 23 lauryl ether, pH 7.5) to obtain solutions with different hydroxamate concentrations, i.e., assay solutions with different concentrations of the assayed MMP inhibitory compound. The experiment controls contained the same amount of Buffer A/DMSO as the assayed sample, but contained no hydroxamate (or salt thereof).
The assays from which the Ki determinations were made were performed as follows. The assayed hydroxamate samples were incubated in separate wells of untreated white polystyrene plates (Nunc Nalgene International, Rochester, N.Y.), and analyzed on a Tecan SpectraFlour Plus plate reader. The excitation wavelength was 330 nm, and the emission wavelength—420 nm. All samples (assayed hydroxamates and controls) were incubated in separate plate wells at room temperature for 1 hr in the presence of 4 μM of MMP substrate (II). In the absence of MMP inhibitory activity, substrate II was cleaved at the Gly-Leu bond resulting in an increase of relative fluorescence. Inhibition was observed as a reduced rate of this increase in relative fluorescence. The various hydroxamates were analyzed using a single low enzyme concentration with a single substrate concentration fixed at or below the Km. This protocol is a modification of method by Knight et al., FEBS Lett., 296(3), 263-266 (1992). Apparent inhibitory constants were determined by non-linear regression of reaction velocity as a function of inhibitor and enzyme concentration using Morrison's equation, as described by Kuzmic, Anal. Biochem. 286, 45-50 (2000). Modifications were made in the non-linear regression method to allow a common control reaction rate and effective enzyme concentration to be shared between all dose-response relationships on a given assay plate. […]

Compound | pKi
O=C(NO)C1(S(=O)(=O)c2ccc(OCCCc3nc(-c4ccc(OC(F)(F)F)cc4)no3)cc2)CCOCC1 [Example 31, tetrahydro-N-hydroxy-4-[[4-[3-[3[4-(trifluoromethoxy)phenyl]-1,2,4-oxadiazol-5-yl]propoxy]phenyl]sulfonyl]-2H-pyran-4-carboxamide] | < 5.00
O=C(NO)C1(S(=O)(=O)c2ccc(OCCCc3cccc(-c4ccc(F)cc4)c3)cc2)CCOCC1 [Example 39] | < 5.00
O=C(NO)C1(S(=O)(=O)c2ccc(OCCc3cccc(-c4ccccn4)c3)cc2)CCOCC1 [Example 40] | < 5.00
CCN1CCC(C(=O)NO)(S(=O)(=O)c2ccc(OCCCc3nc(-c4ccc(OC(F)(F)F)cc4)no3)cc2)CC1 [Example 41, 1-ethyl-N-hydroxy 4-{[4-(3-{3-[4-(trifluoromethoxy)phenyl]-1,2,4-oxadiazol-5-yl}propoxy)phenyl]sulfonyl}piperidine-4-carboxamide Hydrochloride] | < 5.00
COCCN1CCC(C(=O)NO)(S(=O)(=O)c2ccc(OCCCc3nc(-c4ccc(OC(F)(F)F)cc4)no3)cc2)CC1 [Example 42] | < 5.00
CCN1CCC(C(=O)NO)(S(=O)(=O)c2ccc(OCCCc3cccc(-c4ccccc4)c3)cc2)CC1 [Example 46] | < 5.00
COCCN1CCC(C(=O)NO)(S(=O)(=O)c2ccc(OCCCc3cc(-c4ccc(F)cc4F)cs3)cc2)CC1 [Example 47, 4-[(4-{3-[4-(2,4-difluorophenyl)thien-2-l]propoxy}phenyl)sulfonyl]-N-hydroxy-1-(2-methoxyethyl)piperidine-4-carboxamide Hydrochloride] | < 5.00
O=C(NO)C1(S(=O)(=O)c2ccc(OCCCn3nnc(-c4ccc(OC(F)(F)F)cc4)n3)cc2)CCN(C2CC2)CC1 [Example 49] | < 5.00
O=C(NO)C1(S(=O)(=O)c2ccc(OCCCc3nc(-c4ccc(OC(F)(F)F)cc4)no3)cc2)CCN(C2CC2)CC1 [Example 51, 1-cyclopropyl-N-hydroxy-4-{[4-(3-{3-[4-(trifluoromethoxy)phenyl]-1,2,4-oxadiazol-5-yl}propoxy)phenyl]sulfonyl}piperidine-4-carboxamide Hydrochloride] | 5.29
O=C(NO)C1(S(=O)(=O)c2ccc(OCCCn3nnc(-c4ccc(OC(F)(F)F)cc4)n3)cc2)CCN(CC2CC2)CC1 [Example 53] | < 5.00
NC(=O)c1cccc(OCCOc2ccc(S(=O)(=O)C3(C(=O)NO)CCOCC3)cc2)c1 [Example 54] | < 5.00

same assay, conditions: value in parenthesis

Compound | pKi
COCCN1CCC(C(=O)NO)(S(=O)(=O)c2ccc(OCCCc3nc(-c4ccccc4OC(F)(F)F)no3)cc2)CC1 [Example 152] | < 5.00
O=C(NO)C1(S(=O)(=O)c2ccc(OCCCc3cccc(Br)c3)cc2)CCOCC1 [Example 154] | < 5.00
CCc1ccccc1-c1noc(CCCOc2ccc(S(=O)(=O)C3(C(=O)NO)CCN(CCOC)CC3)cc2)n1 [Example 155] | < 5.00
O=C(NO)C1(S(=O)(=O)c2ccc(OCCOc3cccc(-c4ccccc4)c3)cc2)CCOCC1 [Example 157] | < 5.00
CC(C)c1ccc(-c2cccc(CCCOc3ccc(S(=O)(=O)C4(C(=O)NO)CCOCC4)cc3)c2)cc1 [Example 160] | < 5.00
O=C(NO)C1(S(=O)(=O)c2ccc(OCCCc3cccc(-c4cccc(F)c4)c3)cc2)CCOCC1 [Example 161] | < 5.00
O=C(NO)C1(S(=O)(=O)c2ccc(OCCCc3cccc(-c4ccccc4Cl)c3)cc2)CCOCC1 [Example 162] | < 5.00
O=C(NO)C1(S(=O)(=O)c2ccc(OCCCc3cccc(-c4ccccc4F)c3)cc2)CCOCC1 [Example 163] | < 5.00
Cc1ccccc1-c1cccc(CCCOc2ccc(S(=O)(=O)C3(C(=O)NO)CCOCC3)cc2)c1 [Example 164] | < 5.00
Cc1ccc(-c2cccc(CCCOc3ccc(S(=O)(=O)C4(C(=O)NO)CCOCC4)cc3)c2)cc1C [Example 165] | < 5.00
COCCN1CCC(C(=O)NO)(S(=O)(=O)c2ccc(OCCCc3nc(-c4ccc(CC(C)C)cc4)no3)cc2)CC1 [Example 175] | < 5.00
COCCN1CCC(C(=O)NO)(S(=O)(=O)c2ccc(OCCCc3nnc(-c4ccccc4C(F)(F)F)o3)cc2)CC1 [Example 178] | < 5.00
COCCN1CCC(C(=O)NO)(S(=O)(=O)c2ccc(OCCCc3nc(-c4ccc(OC(F)(F)F)cc4)no3)cc2)CC1 [Example 190] | < 5.00
O=C(NO)C1(S(=O)(=O)c2ccc(OCCCc3ccnc(-c4ccccc4)c3)cc2)CCOCC1 [Example 197] | < 5.00

Second part, the compound after the results:

pKi | Compound
< 5.00 | CC(C)C(=O)c1cccc(CCCOc2ccc(S(=O)(=O)C3(C(=O)NO)CCOCC3)cc2)c1 [Example 95]
5.13 | O=C(NO)C1(S(=O)(=O)c2ccc(OCCCc3cccc(-c4ccco4)c3)cc2)CCOCC1 [Example 97]
< 5.00 | O=C(NO)C1(S(=O)(=O)c2ccc(OCCCc3cccc(Cc4ccccc4)c3)cc2)CCOCC1 [Example 98]
< 5.00 | O=C(NO)C1(S(=O)(=O)c2ccc(OCCc3cccc(-c4ccncc4)c3)cc2)CCOCC1 [Example 113]
< 5.00 | O=C(NO)C1(S(=O)(=O)c2ccc(OCCc3cccc(-c4ccccc4F)c3)cc2)CCOCC1 [Example 115]
< 5.00 | O=C(NO)C1(S(=O)(=O)c2ccc(OCCc3cccc(-c4ccc(F)cc4)c3)cc2)CCOCC1 [Example 123]
5.45 | O=C(NO)C1(S(=O)(=O)c2ccc(OCCc3cccc(-c4cccnc4)c3)cc2)CCOCC1 [Example 125]
< 5.00 | Cc1ccc(-c2cccc(CCOc3ccc(S(=O)(=O)C4(C(=O)NO)CCOCC4)cc3)c2)cc1 [Example 127]
< 5.00 | O=C(NO)C1(S(=O)(=O)c2ccc(OCCCc3cccc(-c4ccc(F)cc4)c3)cc2)CCN(C2CC2)CC1 [Example 139]
< 5.00 | COCCN1CCC(C(=O)NO)(S(=O)(=O)c2ccc(OCCCc3cccc(-c4ccc(F)cc4)c3)cc2)CC1 [Example 140]
< 5.00 | O=C1Nc2ccc(-c3noc(CCCOc4ccc(S(=O)(=O)C5(C(=O)NO)CCN(C6CC6)CC5)cc4)n3)cc21 [Example 142]
< 5.00 | O=C(NO)C1(S(=O)(=O)c2ccc(OCCCc3cccc(-c4ccc(OC(F)(F)F)cc4)c3)cc2)CCOCC1 [Example 147]
5.06 | O=C(NO)C1(S(=O)(=O)c2ccc(OCCCc3cccc(-c4ccccn4)c3)cc2)CCOCC1 [Example 148]
< 5.00 | O=C(NO)C1(S(=O)(=O)c2ccc(OCCCc3cccc(-c4ccncc4)c3)cc2)CCOCC1 [Example 149]
< 5.00 | O=C(NO)C1(S(=O)(=O)c2ccc(OCCCc3cccc(-c4cccnc4)c3)cc2)CCOCC1 [Example 150]
5.73 | O=C(CCCOc1ccc(S(=O)(=O)C2(C(=O)NO)CCOCC2)cc1)Nc1cccc(OC(F)(F)F)c1 [Example 181]
5.18 | CC(C)c1cccc(NC(=O)CCCOc2ccc(S(=O)(=O)C3(C(=O)NO)CCOCC3)cc2)c1 [Example 182]
5.25 | O=C(CCCc1ccc(S(=O)(=O)C2(C(=O)NO)CCOCC2)cc1)c1cccc(-c2ccccc2)c1 [Example 219]
5.40 | O=C(CCCOc1ccc(S(=O)(=O)C2(C(=O)NO)CCOCC2)cc1)Nc1ccc(OC(F)(F)F)cc1 [Example 228]
